# According to US10590413B2, “Chiral control” (WAVE LIFE SCIENCES LTD., priority 2012, dated 2020):
# Read-outs that look alike come from different tables or passages of the source. Strand notation (5' to 3'): a small letter for the sugar, then the base; units joined by * are phosphorothioate-linked, units joined directly phosphodiester-linked; [ ] holds rarer units or linkages, { } end groups; capitals alone tell only the bases. [Rp] = phosphorothioate linkage, Rp; [Sp] = phosphorothioate linkage, Sp; d = 2'-deoxy (DNA)
# Legend:
# Murine IL-6 secretion = conditions: cited from earlier work
# NK LU = conditions: PBMC, phosphorothioate ODN, cited from earlier work
# [1] = tested on: TNF-α and IL-12 expression; conditions: cell line 3774, no activator, inhibitor at head concentration: Bafilomycin 250 nM, Chloroquine 2.5 μg/ml, Monensin 10 μM, cited from earlier work; for TNF-α, activator: Medium (inhibitor alone): NAC 50 mM, TPCK 50 μM, Gliotoxin 0.1 μg/ml, Bisgliotoxin 0.1 μg/ml, medium alone 37; for IL-12, activator: Medium (inhibitor alone): medium alone 147
# complementary RNA = assay: Thermal denaturation experiment (Tm) of DNA strand with complementary RNA (Example 49); assay type: binding; conditions: duplex with complementary RNA, equimolar 0.5 μM in 1×PBS; first derivative of 254 nm absorbance curve
# Experimental: Each DNA strand was mixed with complementary RNA in equimolar concentration of 0.5 μM in 1×PBS. Total 2.5 mL solution was prepared for each duplex and the mixture was heated at 90° C. for 2 min and was allowed to cool down over the course of several hours. The mixtures were then stored at 4° C. for 2 hrs. Absorbance at 254 nm was recorded at an interval of 0.5 min starting the temperature gradient from 15° C. to 90° C. with rise of 0.5° C./minute, using a Perkin Elmer UV-spectrophotometer equipped with a Peltier unit. The 254 nm absorbance was plotted against the temperature and the Tm values were calculated from the respective first derivative of each curve.
# [2] = tested on: Apolipoprotein B (Apo B) (NM_000384); assay: Apo B gene expression in Hep3B cells after Lipofectamine 2000 transfection, real-time PCR SYBR green (Example 50); assay type: cell-based, Homo Sapiens; conditions: for IC50: Apo B mRNA, Hep3B cells
# Experimental: After checking OD all oligonucleotide candidate molecules were diluted to a starting concentration of 20 μM. Multidose forward transfection experiment was setup in 96-well plates using Hep3B cells (ATCC®, Cat. HB-8064™) using Lipofectamine 2000 (Life Technologies, Cat. 11668-019) transfection reagent.
# 2×10^4 Hep3B cells per well were seeded and incubated for 24 hours at 37° C. in a CO2 incubator in 100 μl of antibiotic free MEM medium (Life Technologies, Cat. 11095098) containing 10% FBS and 1% Glutamax I (Life Technologies, Cat. 35050061). Twelve dilutions were setup in nuclease free water (Table E-16).
# For each well, 0.5 μL of Lipofectamine 2000 were mixed with 9.5 μL of Opti MEM I reduced serum medium (Life Technologies, Cat. 31985062) and incubated for 5 minutes. Following incubation, 10 μL of each of the candidates at the reported concentrations was mixed with the diluted Lipofectamine 2000 by gentle pipetting. The mixture was then incubated for 20 minutes at room temperature to allow for complex formation. During this time the cell growth medium was replaced with 80 μL of fresh antibiotic free MEM as previously described. 20 μL of lipid-oligo complex was gently mixed into each well bringing the total volume to 100 μL. The cells were then incubated for 24 hours at 37° C. in a CO2 incubator.
# After 24 hour incubation the cell growth medium was removed and RNA was extracted using a Dynabeads mRNA Direct kit (Life Technologies, Cat. 61012) per the instructions provided in the kit manual without modifications. This magnetic Oligo (dT)^25 bead system allows for cost-effective and robust high-throughput poly (A) RNA extraction circumventing DNAse treatment. RNA was eluted in nuclease-free water and stored at −80° C.
# 10 μL of RNA was used in a 20 μL cDNA synthesis reaction using a High Capacity cDNA Reverse Transcription Kit (Life Technologies, Cat. 4374967) using the kit protocol with RNAse Inhibitor. The reverse transcription was performed in a 96-well format on a C1000 Touch thermal cycler (Biorad, Cat. 185-1196EDU).
# Gene expression was measured by quantitative PCR using a LightCycler® 480 SYBR Green I Master (Roche, Cat. 04707516001) on LightCycler 480 Real-Time PCR instrument. Primers for the Homo Sapiens sequences of the target Apolipoprotein B (Apo B) (NM_000384) and endogenous control Glyceralydhyde-3-phosphate dehydrogenase (GAPDH) (NM_002046) were designed and ordered from IDT (Table E-17).
# Measurement of the target and endogenous control was performed in separate wells using material from the same cDNA template. SYBR green assay PCR conditions were setup as described in the SYBR Green I Master protocol (Table E-18).
# The data is a result of 3 biological replicates. All samples were compared to Naïve untransfected control. The following results were observed when evaluating gene expression by real-time PCR using SYBR green (Table E-19, FIG. 5).
# Mouse B Cells = conditions: mean and std. dev. of at least 3 experiments, compared to wells with no added ODN, cited from earlier work
# [3] = T cell depleted spleen cells from DBA/2 mice, phosphodiester O-ODN 20 μM, 24 hr, mean ± SD of triplicates
# [4] = expt. 1 (one donor), US 6,214,806 Table 5
# [5] = expt. 1, cells alone 0.00, US 6,239,116 Table 11
# [6] = 24 hours after transfection, read-out: IC50 (nM) (rounded up to single digit)
# [7] = Complete IC50 data evaluated by SYBR green, 24 hours, 3 biological replicates, read-out: IC50
compound,measurement,setting,value
"C[Si](C)(C)C[C@@H](O)[C@@H]1CCCN1 [Compound 5a, (S)-2-(Trimethylsilyl)-1-((S)-1-pyrrolidin-2-yl)ethanol]",IL-6,Murine IL-6 secretion; [3],1096.4 ± 372.0 pg/mL
same,IL-6,Murine IL-6 secretion; murine IL-6 secretion,1096.4 ± 372.0 pg/mL
1990 (DNA dT*dC*dC*dA*dT*dG*dC*dG*dT*dG*dC*dG*dT*dG*dC*dG*dT*dT*dT*dT) [Oligonucleotide 1990],"NK LU, expt. 1",NK LU; [4],2.10 LU
same,"NK LU, expt. 1",NK LU; [5],2.10 LU
"5f (DNA ATCGACTCTCGAGCGTTCTC; Z-modified nucleotides, chemistry not fully specified) [Oligonucleotide 5f]",IL-6,Murine IL-6 secretion; [3],≤10 pg/mL
same,IL-6,Murine IL-6 secretion; murine IL-6 secretion,≤10 pg/mL
"5e (DNA ATCGACTCTCGAGCCTTCTC; Z modified cytosine, further chemistry not given here) [Oligonucleotide 5e]",IL-6,Murine IL-6 secretion; [3],851.1 ± 114.4 pg/mL
same,IL-6,Murine IL-6 secretion; murine IL-6 secretion,851.1 ± 114.4 pg/mL
1966 (DNA dT*dC*dG*dT*dC*dG*dC*dT*dG*dT*dC*dT*dC*dC*dG*dC*dT*dT*dC*dT*dT) [Oligonucleotide 1966],"NK LU, expt. 1",NK LU; [4],2.62 LU
same,"NK LU, expt. 1",NK LU; [5],2.62 LU
5c (DNA ATCGACTCTCGAGCGTTCTC; chemistry not fully specified) [Oligonucleotide 5c],IL-6,Murine IL-6 secretion; [3],1783.0 ± 189.5 pg/mL
same,IL-6,Murine IL-6 secretion; murine IL-6 secretion,1783.0 ± 189.5 pg/mL
Bafilomycin,"TNF-α, activator: Medium (inhibitor alone)",[1],46 pg/mL
same,"IL-12, activator: Medium (inhibitor alone)",[1],102 pg/mL
"(Rp, Rp, Rp, Rp, Rp, Sp, Sp, Sp, Sp, Sp, Sp, Sp, Sp, Sp, Rp, Rp, Rp, Rp, Rp)-d[GsCsCsTsCsAsGsTsCsTsGsCsTsTsCsGsCsAsCsC] (DNA GCCTCAGTCTGCTTCGCACC; DNA, linkages [Rp]5 [Sp]9 [Rp]5 (s phosphorothioate, o phosphodiester), methylation of C not given here) [Oligonucleotide 103]",Tm (° C.) ± 0.5,complementary RNA,63.4 °C
same,IC50,[2]; [6],6 nM
same,IC50,[2]; [7],5.73 nM
same,"Stimulation Index, 3H Uridine","Mouse B Cells; US 6,239,116 Table 1",6.1 ± 1.4
same,"Stimulation Index, IgM Production","Mouse B Cells; US 6,239,116 Table 1",19.2 ± 5.2
same,"Stimulation Index, 3H Uridine",Mouse B Cells,6.1 ± 1.4
Cc1ccc(S(=O)(=O)N[C@@H](Cc2ccccc2)C(=O)CCl)cc1 [TPCK],"TNF-α, activator: Medium (inhibitor alone)",[1],24 pg/mL
"19792 (DNA TCCATGTCGTTCCTGTCGTT; phosphorothioate, Z modified cytosine, chemistry not fully specified) [Oligonucleotide 19792]","NK LU, expt. 1",NK LU; [4],1.32 LU
CN1C(=O)[C@]23CC4=CC=C[C@H](O)[C@H]4N2C(=O)[C@@]1(CO)SS3 [Gliotoxin],"TNF-α, activator: Medium (inhibitor alone)",[1],17 pg/mL
5b (DNA ATGGAAGGTCCAACGTTCTC; chemistry not given here) [Oligonucleotide 5b],IL-6,Murine IL-6 secretion; [3],1124.5 ± 126.2 pg/mL
same,IL-6,Murine IL-6 secretion; murine IL-6 secretion,1124.5 ± 126.2 pg/mL
"(Rp, Sp, Sp, Sp, Sp, Sp, Sp, Sp, Sp, Sp, Sp, Sp, Sp, Sp, Sp, Sp, Sp, Sp, Rp)-d[GsCsCsTsCsAsGsTsCsTsGsCsTsTsCsGsCsAsCsC] (DNA GCCTCAGTCTGCTTCGCACC; DNA, linkages [Rp]1 [Sp]17 [Rp]1 (s phosphorothioate, o phosphodiester), methylation of C not given here) [Oligonucleotide 106]",Tm (° C.) ± 0.5,complementary RNA,61.8 °C
same,IC50,[2]; [6],4 nM
same,IC50,[2]; [7],~3.85 nM
same,activity compared to Mipomersen (120),"[2]; from Table E-19 IC50, Hep3B",more active
CC[C@@]1([C@@H]2O[C@@H]([C@H]3O[C@@](O)(CO)[C@H](C)C[C@@H]3C)C[C@@H]2C)CC[C@H]([C@]2(C)CC[C@]3(C[C@H](O)[C@@H](C)[C@@H]([C@@H](C)[C@@H](OC)[C@H](C)C(=O)O)O3)O2)O1 [Monensin],"TNF-α, activator: Medium (inhibitor alone)",[1],22 pg/mL
same,"IL-12, activator: Medium (inhibitor alone)",[1],73 pg/mL
"(Rp, Sp, Rp, Rp, Sp, Rp, Rp, Sp, Rp, Rp, Sp, Rp, Rp, Sp, Rp, Rp, Sp, Rp, Rp)d[GsCsCsTsCsAsGsTsCsTsGsCsTsTsCsGsCsAsCsC] (DNA dG[Rp]dC[Sp]dC[Rp]dT[Rp]dC[Sp]dA[Rp]dG[Rp]dT[Sp]dC[Rp]dT[Rp]dG[Sp]dC[Rp]dT[Rp]dT[Sp]dC[Rp]dG[Rp]dC[Sp]dA[Rp]dC[Rp]dC) [Oligonucleotide 116]",Tm (° C.) ± 0.5,complementary RNA,64.8 °C
same,IC50,[2]; [6],2 nM
same,IC50,[2]; [7],1.92 nM
same,activity compared to Mipomersen (120),"[2]; from Table E-19 IC50, Hep3B",more active
same,potency compared to the corresponding stereorandom oligonucleotide mixture (Oligonucleotide 118),"[2]; from Table E-19 IC50, Hep3B",more potent
5d (DNA ATGGAAGGTCCAGTGTTCTC; chemistry not given here) [Oligonucleotide 5d],IL-6,Murine IL-6 secretion; [3],≤10 pg/mL
same,IL-6,Murine IL-6 secretion; murine IL-6 secretion,≤10 pg/mL
1991 (DNA dT*dC*dC*dA*dT*dG*dC*dG*dT*dT*dG*dC*dG*dT*dT*dG*dC*dG*dT*dT) [Oligonucleotide 1991],"NK LU, expt. 1",NK LU; [4],0.89 LU
same,"NK LU, expt. 1",NK LU; [5],0.89 LU
CC(=O)N[C@@H](CS)C(=O)O [NAC],"TNF-α, activator: Medium (inhibitor alone)",[1],10 pg/mL
"CCN(CC)CCCC(C)Nc1ccnc2cc(Cl)ccc12 (stereo not shown) [Chloroquine, chloroquine, reference compound]","TNF-α, activator: Medium (inhibitor alone)",[1],27 pg/mL
same,"IL-12, activator: Medium (inhibitor alone)",[1],20 pg/mL
"(Sp, Rp, Sp, Rp, Sp, Rp, Sp, Rp, Sp, Rp, Sp, Rp, Sp, Rp, Sp, Rp, Sp, Rp, Sp)-d[GsCsCsTsCsAsGsTsCsTsGsCsTsTsCsGsCsAsCsC] (DNA GCCTCAGTCTGCTTCGCACC; DNA, linkages [Sp][Rp][Sp][Rp][Sp][Rp][Sp][Rp][Sp][Rp][Sp][Rp][Sp][Rp][Sp][Rp][Sp][Rp][Sp] (s phosphorothioate, o phosphodiester), methylation of C not given here) [Oligonucleotide 108]",Tm (° C.) ± 0.5,complementary RNA,64.8 °C
same,IC50,[2]; [6],3 nM
same,IC50,[2]; [7],3.19 nM
